These results are taken from patent publication US20160244436A1, “NOVEL FUNCTIONALIZED 5-(PHENOXYMETHYL)-1,3-DIOXANE ANALOGS EXHIBITING CYTOCHROME P450 INHIBITION AND THEIR METHOD OF USE” (CORTENDO AB (PUBL), priority 2013, published 2016).

Each structure is given as a SMILES string. pIC50: −log10 of the molar value.

Data set [1] concerns the target T1, recombinant CYP-21 (Homo sapiens, UniProt P08686).
T1 construct: expressed in transfected cells; host or cells: AD293
T1 sequence (P08686 1-495): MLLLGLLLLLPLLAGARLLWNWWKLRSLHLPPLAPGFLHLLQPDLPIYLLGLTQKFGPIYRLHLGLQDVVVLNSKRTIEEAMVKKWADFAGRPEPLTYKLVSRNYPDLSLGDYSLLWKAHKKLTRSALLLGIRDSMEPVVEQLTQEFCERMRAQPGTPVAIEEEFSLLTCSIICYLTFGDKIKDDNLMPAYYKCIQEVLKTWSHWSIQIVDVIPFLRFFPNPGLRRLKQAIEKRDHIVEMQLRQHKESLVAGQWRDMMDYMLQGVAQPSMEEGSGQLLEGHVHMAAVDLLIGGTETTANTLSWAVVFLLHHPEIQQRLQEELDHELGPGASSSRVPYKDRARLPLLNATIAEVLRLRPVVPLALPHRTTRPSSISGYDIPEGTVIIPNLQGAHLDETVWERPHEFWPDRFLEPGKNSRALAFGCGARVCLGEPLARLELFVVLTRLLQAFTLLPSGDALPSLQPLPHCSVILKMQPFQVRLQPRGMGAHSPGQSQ
The experiment in a line: Cyp21 assay: AD293 cells over-expressing recombinant CYP-21, 11-deoxycortisol formation from 17α-OH Progesterone by LC/MS. It counts as cell-based. Here is the method: Cyp21 assay protocol: AD293 cells that stably over-express recombinant CYP-21 were seeded in 96 well plates coated with poly D-lysine (10,000 cell per well) and incubated at 37° C. for 24 hours in Dulbecco's Modified Eagle Medium (DMEM) with Fetal Bovine Serum (FBS) that is stripped of hormones by charcoal treatment. The media is then removed, the cells are washed once with Phosphate buffer saline solution, and 50 μL Dulbecco's Modified Eagle Medium (DMEM) with Fetal Bovine Serum (FBS) that is stripped of hormones by charcoal treatment is added. Compounds of the disclosure are then added to the wells in eight concentration spanning 10 μM to 4.5 nM, and the plates are incubated for an additional 60 minutes at 37° C. 17α-OH Progesterone is then added (1.0 μM) and the plates are incubated for an additional 45 minutes at 37° C. After incubation, 50 uL of the supernatant (medium) is transferred into a fresh plate and 150 uL of an acetonitrile solution containing 200 ng/ml of Telmisartan is added. The sample is mixed and then placed in a centrifuge at 2000 rpm for 5 minutes. 100 uL of the supernatant is transferred into a fresh 96 well deep well plate, 100 uL of 1:1 methanol:water was added, the solution was mixed and then analyzed by LC/MS for the presence of 11-deoxycortisol using an Agilent 1200 RRLC/ABSCIEX API4000 LC-MS or Shimadzu Prominance/ABSCIEX API4000 LC-MS to determine IC5os of the compounds of the disclosure.

Data set [2] addresses T2, recombinant CYP-17 (Homo sapiens, UniProt P05093).
T2 construct: expressed in transfected cells; host or cells: AD293
T2 sequence (P05093 1-508): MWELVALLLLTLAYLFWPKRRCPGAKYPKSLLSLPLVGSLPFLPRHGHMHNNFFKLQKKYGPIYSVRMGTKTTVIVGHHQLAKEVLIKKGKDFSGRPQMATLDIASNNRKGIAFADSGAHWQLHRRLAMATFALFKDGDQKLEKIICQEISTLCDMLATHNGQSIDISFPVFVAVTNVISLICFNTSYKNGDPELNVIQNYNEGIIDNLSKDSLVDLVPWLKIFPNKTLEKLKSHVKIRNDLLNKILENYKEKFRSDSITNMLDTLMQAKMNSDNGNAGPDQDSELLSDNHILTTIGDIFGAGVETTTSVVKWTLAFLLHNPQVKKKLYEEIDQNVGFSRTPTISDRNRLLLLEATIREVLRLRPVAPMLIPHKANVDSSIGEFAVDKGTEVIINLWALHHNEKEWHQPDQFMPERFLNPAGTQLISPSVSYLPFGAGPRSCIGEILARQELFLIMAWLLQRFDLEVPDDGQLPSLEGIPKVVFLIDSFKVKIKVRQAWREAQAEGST
The data set is described as follows: Cyp17 assay: AD293 cells over-expressing recombinant CYP-17, 3H-acetic acid release from [21-3H] 17α-hydroxyl-Pregnenolone. The class given is cell-based. Here is the method: Cyp17 assay protocol: AD293 cells that stably over-express recombinant CYP-17 were seeded in 96 well plates coated with poly D-lysine (15,000 cell per well) and incubated at 37° C. for 24 hours in Dulbecco's Modified Eagle Medium (DMEM) with Fetal Bovine Serum (FBS) that is stripped of hormones by charcoal treatment. The media is then removed, the cells are washed once with Phosphate buffer saline solution, and 50 μL Dulbecco's Modified Eagle Medium (DMEM) with Fetal Bovine Serum (FBS) that is stripped of hormones by charcoal treatment is added. Compounds of the disclosure are then added to the wells in eight concentration spanning 10 μM to 4.5 nM, and the plates are incubated for an additional 60 minutes at 37° C. [21-^3H] 17α-hydroxyl-Pregnenolone is then added (50 nCi per well, 31.25 nM) and the plates are incubated for an additional 4 hours at 37° C. The media is then collected, 200 μL, of chloroform is added, and the mixture is shaken for 1 hour. The aqueous layer is then separated and analyzed for the presence of ^3H-acetic acid using a Perkin Elmer Topcount NXT to determine IC50s of the compounds of the disclosure.

The target in data set [3] is T3, recombinant CYP-11 (Homo sapiens, UniProt P15538).
T3 construct: expressed in transfected cells; host or cells: AD293
T3 sequence (P15538 25-503): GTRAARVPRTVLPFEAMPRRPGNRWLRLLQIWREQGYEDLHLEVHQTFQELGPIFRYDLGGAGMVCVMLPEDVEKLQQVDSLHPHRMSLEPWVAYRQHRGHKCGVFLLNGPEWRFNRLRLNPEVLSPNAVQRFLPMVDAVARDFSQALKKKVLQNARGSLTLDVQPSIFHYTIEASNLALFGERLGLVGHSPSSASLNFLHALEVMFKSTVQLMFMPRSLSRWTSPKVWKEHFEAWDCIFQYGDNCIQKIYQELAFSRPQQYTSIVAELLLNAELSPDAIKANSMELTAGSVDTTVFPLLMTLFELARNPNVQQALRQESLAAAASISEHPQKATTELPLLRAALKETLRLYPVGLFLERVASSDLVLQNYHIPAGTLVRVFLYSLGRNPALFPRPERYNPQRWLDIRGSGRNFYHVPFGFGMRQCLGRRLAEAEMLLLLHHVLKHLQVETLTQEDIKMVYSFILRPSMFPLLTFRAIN
The data set is described as follows: Cyp11 assay: AD293 cells over-expressing recombinant CYP-11, cortisol formation from 11-deoxycortisol by LC/MS. The class given is cell-based. The method, then: Cyp11 assay protocol: AD293 cells that stably over-express recombinant CYP-11 were seeded in 96 well plates coated with poly D-lysine (15,000 cell per well) and incubated at 37° C. for 24 hours in Dulbecco's Modified Eagle Medium (DMEM) with Fetal Bovine Serum (FBS) that is stripped of hormones by charcoal treatment. The media is then removed, the cells are washed once with Phosphate buffer saline solution, and 50 μL Dulbecco's Modified Eagle Medium (DMEM) with Fetal Bovine Serum (FBS) that is stripped of hormones by charcoal treatment is added. Compounds of the disclosure are then added to the wells in eight concentration spanning 10 μM to 4.5 nM, and the plates are incubated for an additional 60 minutes at 37° C. 11-deoxycortisol is then added (2.0 μM) and the plates are incubated for an additional 12 hours at 37° C. After incubation, 50 uL of the supernatant (medium) is transferred into a fresh plate and 150 uL of an acetonitrile solution containing 200 ng/ml of Telmisartan is added. The sample is mixed and then placed in a centrifuge at 2000 rpm for 5 minutes. 100 uL of the supernatant is transferred into a fresh 96 well deep well plate, 100 uL of 1:1 methanol:water was added, the solution was mixed and then analyzed by LC/MS for the presence of cortisol using an Agilent 1200 RRLC/ABSCIEX API4000 LC-MS or Shimadzu Prominance/ABSCIEX API4000 LC-MS to determine IC5os of the compounds of the disclosure.

Data set [4] can be described thus: Pharmacokinetic studies in the guinea pig (1 mg/kg IV, 10 mg/kg oral). It counts as in vivo. The method, then: Pharmacokinetic studies in the guinea pig were run using 1 mg/kg IV dosing (20% DMA, 40% TEG, 40% water) and 10 mg/kg oral dosing (2% Tween-80, 98% HPMC (1% water)).

Broadly, the pIC50 is −log10 of the IC50, conventionally taken in molar units. `Clc1ccccc1[C@]1(Cn2ccnc2)OC[C@@H](OCc2ccc(-c3ccncc3)cc2)CO1` [Example 510017]: the pIC50 in data set [1] is 6.41; in data set [2] it was 7.38; in data set [3], 6.36.

On to `CCOC(=O)CNC(=O)N1CCN(c2ccc(CO[C@H]3CO[C@](Cn4ccnc4)(c4ccccc4Cl)OC3)cc2)CC1` [Example 510018], for which the pIC50 was 5.55 in data set [1], 7.40 in data set [2] and 6.97 in data set [3].

Broadly, the Cmax is the maximum level reached in the sampled fluid or tissue. For orientation: Tmax means the time from dosing to the highest level. `CC(=O)N1CCN(c2ccc(CO[C@H]3CO[C@](Cn4ccnc4)(c4ccc(Cl)cc4Cl)OC3)cc2)CC1` [drawing 113]: in data set [4] (in vivo, 10 mg/kg oral vs 1 mg/kg IV), the bioavailability was determined as 184%. Moreover, in data set [4] (oral, 10 mg/kg), the AUC0-inf turned out to be 14891 ng·h/mL, the AUC0-last was found to be 8231 ng·h/mL, the AUCExtra is listed as 43.93% and the Cmax is 1018 ng/mL. In addition, in data set [4] (oral, 10 mg/kg), the MRT0-last is reported as 5.56 h, the time to peak (Tmax) was found to be 3 h and the t1/2 worked out at 6.0 h. Further, the “DNAUC (0-inf)” value in data set [4] (oral, 10 mg/kg, dose-normalised AUC) turned out to be 823.1. In addition, the Rsq in data set [4] (oral, 10 mg/kg, fit of terminal phase) is on record as 0.91.
